{"source": "patent US10590411B2", "about": "“Crude biological derivatives competent for nucleic acid detection” (APPLIED BIOSYSTEMS, LLC, priority 2002, dated 2020)", "tested_on": "tissue plasminogen activator (t-PA)", "experiment": "t-PA mRNA level after PMA treatment, one-step real-time RT-PCR on cell lysate", "assay_type": "cell-based", "conditions": "HeLa cells, 100 and 10 nM PMA, 24 hours, normalized to 18S rRNA", "method": "FIG. 3. Illustrates an example of measuring the levels of 18S rRNA and tPA mRNA in HeLa cells that were incubated with different concentrations of PMA by one-step, real-time RT-PCR in the ABI 7700. The cells were processed in 96-well plates using the methods of the invention.\nCells were grown overnight in 0.2 ml DME media with 10% FBS with equal number of cells in each well of a 96-well plate. After an overnight incubation, phorbol myristate acetate (PMA) is added to final concentrations of 100, 10, 1, 0.1, and 0 nM in the growth medium in replicates of eight. The cells were incubated at 37° C. for 24 hours. The 96-well plate and lid were placed on the Packard MultiPROBE® II HT Liquid Handling System from PerkinElmer Life Sciences on the proper deck positions. All proceeding steps were entered into the WinPrep for automation. The growth medium was removed and the cells washed with 1×PBS. A volume of 0.1 ml Cell Lysis Buffer is added to each well. The plate was moved to a heating tile, for example, a tile at 75°, and incubated for 10 minutes. […] The plate was shaken for 2 minutes. PMSF can be used when the heating tile cannot heat the sample to 75° C. to inactivate the proteinase K. Two μl DNase I (2 U/μl) was added to each well and the plate was moved to a 37° C. heating tile. The plate was incubated for 15 minutes while shaking. […] The plate was ready for one-step RT-PCR. […]", "data": [{"smiles": "CCCCCCCCCCCCCC(=O)O[C@@H]1[C@@H](C)[C@@]2(O)[C@@H](C=C(CO)C[C@]3(O)C(=O)C(C)=C[C@@H]23)[C@@H]2C(C)(C)[C@]12OC(C)=O", "note": "[PMA, phorbol myristate acetate]", "values": [{"measurement": "stimulation of t-PA", "value": "~29", "unit": "fold"}]}]}
